Data on 20 compounds can be found in patent US12084472B2 (Ardelyx, Inc., priority 2015, dated 2024).

This assay concerns the target T1, human TGR5 (Homo sapiens, UniProt Q8TDU6).
T1 construct: expressed in transfected cells; host or cells: HEK293
T1 sequence (Q8TDU6 1-330): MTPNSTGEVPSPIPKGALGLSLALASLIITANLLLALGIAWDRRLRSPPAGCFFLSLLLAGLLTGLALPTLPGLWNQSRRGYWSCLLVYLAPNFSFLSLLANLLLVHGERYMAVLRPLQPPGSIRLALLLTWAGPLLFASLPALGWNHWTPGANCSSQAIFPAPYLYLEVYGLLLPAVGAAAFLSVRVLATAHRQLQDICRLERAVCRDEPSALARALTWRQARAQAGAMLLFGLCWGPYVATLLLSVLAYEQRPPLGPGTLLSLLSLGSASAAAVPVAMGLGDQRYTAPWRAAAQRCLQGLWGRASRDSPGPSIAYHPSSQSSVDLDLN
Put plainly: Cell-based TGR5 assay (cAMP generation, HTRF). As to conditions: HEK293 cells stably transfected with human TGR5; cAMP by HTRF; 30 minutes at 37° C.; read-out: pEC50 Human TGR5 (converted). Summed up:
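Read-out was HTRF detection of cAMP, converted to concentration via a standard curve and fitted (3-parameter logistic) for pEC50 and maximal response. Agonist stimulation used HEK293 cells stably transfected with human TGR5, incubated 30 min at 37° C in IBMX-containing buffer at 0.05 nM to 10 μM compound.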
As for `CS(=O)(=O)NCCCCN(CCCSc1ccc(Cl)c(CNC2(c3cnccc3-c3ccccc3OC3CC3)CC2)c1)C(=O)[C@@H](O)[C@@H](O)[C@H](O)[C@@H](O)CO` [Compound I-599, (2S,3S,4R,5S)-N-[3-({4-chloro-3-[({1-[4-(2-cyclopropoxyphenyl)pyridin-3-yl]cyclopropyl}amino)methyl]phenyl}sulfanyl)propyl]-2,3,4,5,6-pentahydroxy-N-(4-methanesulfonamidobutyl) hexanamide], the EC50 is less than 100 nM.
For `O=C([C@@H](O)[C@@H](O)[C@H](O)[C@@H](O)CO)N(CCCCO)CCCCCSc1ccc(Cl)c(CNC2(c3cnccc3-c3ccccc3OC3CC3)CC2)c1` [Compound I-600, (2S,3S,4R,5S)-N-[5-({4-chloro-3-[({1-[4-(2-cyclopropoxyphenyl)pyridin-3-yl]cyclopropyl}amino)methyl]phenyl}sulfanyl)pentyl]-2,3,4,5,6-pentahydroxy-N-(4-hydroxybutyl)hexanamide] the value was less than 100 nM; for `O=C([C@@H](O)[C@@H](O)[C@H](O)[C@@H](O)CO)N(CCCCCO)CCCCCSc1ccc(Cl)c(CNC2(c3cnccc3-c3ccccc3OC3CC3)CC2)c1` [Compound I-601, (2S,3S,4R,5S)-N-[5-({4-chloro-3-[({1-[4-(2-cyclopropoxyphenyl)pyridin-3-yl]cyclopropyl}amino)methyl]phenyl}sulfanyl)pentyl]-2,3,4,5,6-pentahydroxy-N-(5-hydroxypentyl)hexanamide], less than 100 nM; for `CC(=O)NCCCCN(CCCSc1ccc(Cl)c(CNC2(c3cnccc3-c3ccccc3OC3CC3)CC2)c1)C(=O)[C@@H](O)[C@@H](O)[C@H](O)[C@@H](O)CO` [Compound I-602, (2S,3S,4R,5S)-N-[3-({4-chloro-3-[({1-[4-(2-cyclopropoxyphenyl)pyridin-3-yl]cyclopropyl}amino)methyl]phenyl}sulfanyl)propyl]-N-(4-acetamidobutyl)-2,3,4,5,6-pentahydroxyhexanamide], 126 to 1000 nM.
For `CS(=O)(=O)CCN(CCCCCSc1ccc(Cl)c(COC2(c3cnccc3-c3ccccc3OC3CC3)CC2)c1)C(=O)[C@@H](O)[C@@H](O)[C@H](O)[C@@H](O)CO` [Compound I-603, (2S,3S,4R,5S)-N-(5-{[4-chloro-3-({1-[4-(2-cyclopropoxyphenyl)pyridin-3-yl]cyclopropoxy}methyl)phenyl]sulfanyl}pentyl)-2,3,4,5,6-pentahydroxy-N-(2-methanesulfonylethyl)hexanamide] the value was less than 100 nM.
For `CCS(=O)(=O)CCN(CCCCCSc1ccc(Cl)c(COC2(c3cnccc3-c3ccccc3OC3CC3)CC2)c1)C(=O)[C@@H](O)[C@@H](O)[C@H](O)[C@@H](O)CO` [Compound I-604, (2S,3S,4R,5S)-N-(5-{[4-chloro-3-({1-[4-(2-cyclopropoxyphenyl)pyridin-3-yl]cyclopropoxy}methyl)phenyl]sulfanyl}pentyl)-N-[2-(ethanesulfonyl)ethyl]-2,3,4,5,6-pentahydroxyhexanamide] the value was less than 100 nM; for `O=C([C@@H](O)[C@@H](O)[C@H](O)[C@@H](O)CO)N(CCCCO)CCCCCSc1ccc(Cl)c(COC2(c3cnccc3-c3ccccc3OC3CC3)CC2)c1` [Compound I-605, (2S,3S,4R,5S)-N-(5-{[4-chloro-3-({1-[4-(2-cyclopropoxyphenyl)pyridin-3-yl]cyclopropoxy}methyl)phenyl]sulfanyl}pentyl)-2,3,4,5,6-pentahydroxy-N-(4-hydroxybutyl)hexanamide], less than 100 nM.
In the case of `O=C([C@@H](O)[C@@H](O)[C@H](O)[C@@H](O)CO)N(CCCCCO)CCCCCSc1ccc(Cl)c(COC2(c3cnccc3-c3ccccc3OC3CC3)CC2)c1` [Compound I-606, (2S,3S,4R,5S)-N-(5-{[4-chloro-3-({1-[4-(2-cyclopropoxyphenyl)pyridin-3-yl]cyclopropoxy}methyl)phenyl]sulfanyl}pentyl)-2,3,4,5,6-pentahydroxy-N-(5-hydroxypentyl)hexanamide], the EC50 is less than 100 nM.
`O=C(NCCCCC[S+]([O-])c1ccc(Cl)c(COC2(c3cnccc3-c3ccccc3OC3CC3)CC2)c1)[C@@H](O)[C@@H](O)[C@H](O)[C@@H](O)CO` (stereo partly drawn) [Compound I-607, (2S,3S,4R,5S)-N-{5-[4-chloro-3-({1-[4-(2-cyclopropoxyphenyl)pyridin-3-yl]cyclopropoxy}methyl)benzenesulfinyl]pentyl}-2,3,4,5,6-pentahydroxyhexanamide]: the EC50 is less than 100 nM.
For `O=C(NCCCCCS(=O)(=O)c1ccc(Cl)c(COC2(c3cnccc3-c3ccccc3OC3CC3)CC2)c1)[C@@H](O)[C@@H](O)[C@H](O)[C@@H](O)CO` [Compound I-608, (2S,3S,4R,5S)-N-{5-[4-chloro-3-({1-[4-(2-cyclopropoxyphenyl)pyridin-3-yl]cyclopropoxy}methyl)benzenesulfonyl]pentyl}-2,3,4,5,6-pentahydroxyhexanamide] the value was less than 100 nM; for `NC(=O)CN(CCCCCSc1ccc(Cl)c(COC2(c3cnccc3-c3ccccc3OC3CC3)CC2)c1)C(=O)[C@@H](O)[C@@H](O)[C@H](O)[C@@H](O)CO` [Compound I-609, (2S,3S,4R,5S)-N-(carbamoylmethyl)-N-(5-{[4-chloro-3-({1-[4-(2-cyclopropoxyphenyl)pyridin-3-yl]cyclopropoxy}methyl)phenyl]sulfanyl}pentyl)-2,3,4,5,6-pentahydroxyhexanamide], less than 100 nM; for `NC(=O)CN(CCCCCSc1ccc(Cl)c(CNC2(c3cnccc3-c3ccccc3OC3CC3)CC2)c1)C(=O)[C@@H](O)[C@@H](O)[C@H](O)[C@@H](O)CO` [Compound I-610, (2S,3S,4R,5S)-N-(carbamoylmethyl)-N-[5-({4-chloro-3-[({1-[4-(2-cyclopropoxyphenyl)pyridin-3-yl]cyclopropyl}amino)methyl]phenyl}sulfanyl)pentyl]-2,3,4,5,6-pentahydroxyhexanamide], less than 100 nM.
As for `O=C(NCCCCCSc1ccc(Cl)c(COC2(c3cnccc3-c3ccccc3OC3CC3)CC2)c1)[C@@H](O)[C@@H](O)[C@H](O)[C@@H](O)CO` [Compound I-611, (2S,3S,4R,5S)-N-(5-{[4-chloro-3-({1-[4-(2-cyclopropoxyphenyl)pyridin-3-yl]cyclopropoxy}methyl)phenyl]sulfanyl}pentyl)-2,3,4,5,6-pentahydroxyhexanamide], the EC50 is less than 100 nM.
For `O=C(O)CN(CCN(CC(=O)O)CC(=O)NCCOCCSc1ccc(Cl)c(COC2(c3cnccc3-c3ccccc3OC3CC3)CC2)c1)CC(=O)NCCOCCSc1ccc(Cl)c(COC2(c3cnccc3-c3ccccc3OC3CC3)CC2)c1` [Compound I-612, 2-({2-[(carboxymethyl)({[2-(2-{[4-chloro-3-({1-[4-(2-cyclopropoxyphenyl)pyridin-3-yl]cyclopropoxy}methyl)phenyl]sulfanyl}ethoxy)ethyl]carbamoyl}methyl)amino]ethyl}({[2-(2-{[4-chloro-3-({1-[4-(2-cyclopropoxyphenyl)pyridin-3-yl]cyclopropoxy}methyl)phenyl]sulfanyl}ethoxy)ethyl]carbamoyl}methyl)amino)acetic acid] the value was 126 to 1000 nM.
For `CS(=O)(=O)CCN(CCCCSc1ccc(Cl)c(COC2(c3cnccc3-c3ccccc3OC3CC3)CC2)c1)C[C@H](O)[C@@H](O)[C@H](O)[C@H](O)CO` [Compound I-613, (2R,3R,4R,5S)-6-[(4-{[4-chloro-3-({1-[4-(2-cyclopropoxyphenyl)pyridin-3-yl]cyclopropoxy}methyl)phenyl]sulfanyl}butyl)(2-methanesulfonylethyl)amino]hexane-1,2,3,4,5-pentol] the value was less than 100 nM; for `Cc1ccc(SCCCN(CCS(C)(=O)=O)C[C@H](O)[C@@H](O)[C@H](O)[C@H](O)CO)cc1COC1(c2cnccc2-c2ccccc2OC2CC2)CC1` [Compound I-614, (2R,3R,4R,5S)-6-[(3-{[3-({1-[4-(2-cyclopropoxyphenyl)pyridin-3-yl]cyclopropoxy}methyl)-4-methylphenyl]sulfanyl}propyl)(2-methanesulfonylethyl)amino]hexane-1,2,3,4,5-pentol], 126 to 1000 nM.
`Cc1ccc(SCCCCN(CCS(C)(=O)=O)C[C@H](O)[C@@H](O)[C@H](O)[C@H](O)CO)cc1COC1(c2cnccc2-c2ccccc2OC2CC2)CC1` [Compound I-615, (2R,3R,4R,5S)-6-[(4-{[3-({1-[4-(2-cyclopropoxyphenyl)pyridin-3-yl]cyclopropoxy}methyl)-4-methylphenyl]sulfanyl}butyl)(2-methanesulfonylethyl)amino]hexane-1,2,3,4,5-pentol]: the EC50 is less than 100 nM.
In the case of `CSc1ccc(Cl)c(COC2(c3cnccc3-c3ccccc3OC3CC3)CC2)c1` [Compound I-617, 3-(1-{[2-chloro-5-(methylsulfanyl)phenyl]methoxy}cyclopropyl)-4-(2-cyclopropoxyphenyl) pyridine], the EC50 is less than 100 nM.
Turning to `CSc1cc(CNC2(c3cnccc3-c3ccccc3OC3CC3)CC2)c(C)cn1` [Compound I-619, [4-(2-cyclopropoxyphenyl)pyridin-3-yl]-N-{[5-methyl-2-(methylsulfanyl)pyridin-4-yl]methyl}cyclopropan-1-amine], the EC50 is less than 100 nM.
For `CC(C)c1ccc(SCCCC(=O)N(C)C[C@H](O)[C@@H](O)[C@H](O)[C@H](O)CO)cc1COC1(c2cnccc2-c2ccccc2OC2CC2)CC1` [Compound I-620, 4-{[3-({1-[4-(2-cyclopropoxyphenyl)pyridin-3-yl]cyclopropoxy}methyl)-4-(propan-2-yl)phenyl]sulfanyl}-N-methyl-N-[(2S,3R,4R,5R)-2,3,4,5,6-pentahydroxyhexyl]butanamide] the value was 1260 to 10000 nM.
